In patent publication US20240091324A1, “GASTROINTESTINAL HEALTH COMPOSITION” (priority 2019, published 2024):

Experiments:
[1] = system: IL-8 release from Caco-2 monolayers; assay: Release of IL-8 from polarised Caco-2 monolayers stimulated with LPS, TNF-α, IFN-β; format: cell-based, human; conditions: for % increase in anti-inflammatory activity compared to equivalent formulation without bromelain (difference of means): plus 80 ug/ml bromelain
Experimental: Inflammatory model of Caco-2 polarised monolayer stimulated with inflammatory mediators LPS, TNF-α, IFN-β: Polarised Caco-2 models were generated as previously described. When cell cultures reached a baseline TER of >1000/cm^2, the monolayers were stimulated by addition of 0.6 ml containing 50 ng/ml IFN-β, 10 μg/ml LPS and 5 ng/ml TNFα to the basolateral compartment. Immediately after the addition of the stimulation cocktail 0.25 ml of GaRP±0-80 μg/ml bromelain was applied to the apical compartment. After the 24 h incubation culture supernatants from the apical side were collected for quantitation of IL-8.
The human colorectal adenocarcinoma cell-line C2BBe1 was grown and maintained in Dulbecco's modified Eagle's medium (DMEM) supplemented with 10% v/v fetal bovine serum (FBS), 4 mM L-glutamine, 100 U/ml penicillin and […] streptomycin. All experiments were conducted on C2BBe1 cells within 12 passages after thawing.
In an experiment to evaluate the anti-inflammatory effect of bromelain or various GaRP formulations, 0.25 ml of test samples was applied to the apical side for 24 h, at the same time 0.6 ml of a cocktail containing 50 ng/ml IFN+10 ug/ml LPS+5 ng/ml TNF was added to the basolateral side in this model. After the 24 h incubation culture supernatants from the apical side were collected and IL-8 quantitated by ELISA.

[2] = system: Enterocyte; conditions: menthol was not tested in vitro; published literature; cited from earlier work
[3] = system: Bacteria (AIEC obtained from IBD and IBS patients); conditions: menthol was not tested in vitro; published literature; cited from earlier work
[4] = system: Macrophage; conditions: menthol was not tested in vitro; published literature; cited from earlier work
[5] = system: Macrophage; assay: Observed therapeutic effective dose determined in the in vitro experiments (Table 4); format: cell-based, human
Experimental: (§1) The observed therapeutic effective dose was determined in the in vitro experiments described herein.
(§2) Table 4 summarises the observed therapeutic effective dose for each GaRP formulation component.

[6] = system: Enterocyte; assay: as above; format: cell-based, human
Experimental: as §1, §2

[7] = system: MUC16; assay: qPCR of MUC gene expression in Caco-2:HT-29-MTX 75:25 coculture; format: cell-based, human; conditions: 24 h
Experimental: (§3) Caco-2:HT-29-MTX 75:25 coculture: This co-culture model was used to simulate the human colonic epithelium (Hilgendorh C, 2000). The Caco-2 cells (passage 8) and the HT29-MTX cells (passage 9) were combined at a 75:25 ratio in DMEM with 10% FBS. The combined cells (6.4×10^4 cells/ml) were seeded into 25 cm^2 in a total of 5 ml per flask. The coculture was incubated at 37° C. in a 5% CO2 atmosphere with medium refreshed every 48 h. At 15 days post seeding, the coculture monolayer was washed three times in DMEM and replaced with 5 ml of pre-warmed test solution, and then incubated for 24 h.
(§4) Before RNA extraction, cells were collected by centrifugation at 5,000 g for 5 min, 4° C. the cell pellet was washed three times in ice-cold PBS followed by resuspension in 500 μl of ice-cold PBS. The total RNA of 2×10^6 cells per sample was extracted using a PureLink RNA mini kit with 1.5 μg of RNA (with A260/A280 ratio between 2.00 and 2.20) reverse-transcribed into cDNA using a High Capacity cDNA RT kit. The expression of the genes of interest was quantified using the PowerUp SYBR green Master mix. In brief, triplicate qPCR reactions was set up using 20 ng cDNA and 500 nM primers in a MicroAmp optical 384-well reaction plates using a Biomek-4000 automated liquid handler (Beckman Coulter, Brea, CA, USA). Amplification was run in a ViiA7 Real-Time PCR system (Thermo Fisher Scientific) at the following conditions: 95° C. for 20 seconds followed by 40 cycles of 95° C. for 1 second and 60° C. for 20 seconds; and a melt curve stage: 95° C., 15 s; 60° C., 60 s. The results of qPCR were analysed with the 2-ΔΔCT method as previously described using the QuantStudio Software V1.3 (Applied Biosystems). Relative gene expression values were normalized by using GAPDH and 18S as the multiple endogenous reference genes.
(§5) A 75:25 caco-2/HT-29 co-culture was established as previously described herein and the effect of a 24 h exposure to bromelain, threonine, sodium butyrate, vitamin D3 and the two different GaRP formulations on the expression of the following MUC genes was investigated using qPCR. At the end of the 24 h treatment, the supernatant in the 25 cm^2 flasks was collected and the coculture monolayer was trypsinised as previously described herein.
(§6) This co-culture model was used to simulate the human colonic epithelium. The Caco-2 cells (passage 8) and the HT29-MTX cells (passage 9) were combined at a 75:25 ratio in DMEM with 10% FBS. The combined cells (6.4×10^4 cells/ml) were seeded into 25 cm^2 in a total of 5 ml per flask. The coculture was incubated at 37° C. in a 5% CO2 atmosphere with medium refreshed every 48 h. At 15 days post seeding, the coculture monolayer was washed three times in DMEM and replaced with 5 ml of pre-warmed test solution, and then incubated for 24 h.
(§7) The test solutions of cholecalciferol (VD3) and L-Threonine (L-Thr) (Sigma-Aldrich) in culture medium were prepared one day before the treatment. At 15 days post seeding, the coculture monolayer was washed three times at hourly interval with culture medium, which was then replaced with 5 ml of pre-warmed test solution, and then incubated for 24 h.
(§8) At the end of the 24 h treatment, the supernatant in the 25 cm^2 flasks was collected and the coculture monolayer was trypsinised as previously described. Cells were collected by centrifugation at 5,000 g for 5 min, 4° C. After washed three times with ice-cold PBS, the cells were resuspended in 500 μl of ice-cold PBS. The total RNA of 2×10^6 cells per sample was extracted using the PureLink RNA mini kit (Invitrogen). For real-time PCR analysis, 1.5 μg of RNA (with A260/A280 ratio between 2.00 and 2.20) was reverse transcribed into cDNA using the High Capacity cDNA RT kit (Applied Biosystems, Foster City, CA, USA).
(§9) The expression of the human MUC2 and MUC7 genes in the Caco-2:HT-29-MTX 75:25 coculture was quantified using the PowerUp SYBR green Master mix (Applied Biosystems). […]

[8] = system: MUC7; assay: as above; format: cell-based, human; conditions: 24 h
Experimental: as §3, §4, §5, §6, §7, §8, §9

[9] = system: MUC5B; assay: as above; format: cell-based, human; conditions: 24 h
Experimental: as §3, §4, §5, §6, §7, §8, §9

[10] = system: MUC20; assay: as above; format: cell-based, human; conditions: 24 h
Experimental: as §3, §4, §5, §6, §7, §8, §9

[11] = system: MUC1; assay: as above; format: cell-based, human; conditions: 24 h
Experimental: as §3, §4, §5, §6, §7, §8, §9

[12] = system: MUC17; assay: as above; format: cell-based, human; conditions: 24 h
Experimental: as §3, §4, §5, §6, §7, §8, §9

[13] = system: MUC4; assay: as above; format: cell-based, human; conditions: 24 h
Experimental: as §3, §4, §5, §6, §7, §8, §9

[14] = system: MUC19; assay: as above; format: cell-based, human; conditions: 24 h
Experimental: as §3, §4, §5, §6, §7, §8, §9

[15] = system: MUC15; assay: as above; format: cell-based, human; conditions: 24 h
Experimental: as §3, §4, §5, §6, §7, §8, §9

[16] = system: MUC2; assay: as above; format: cell-based, human; conditions: 24 h
Experimental: as §3, §4, §5, §6, §7, §8, §9

[17] = system: MUC6; assay: as above; format: cell-based, human; conditions: 24 h
Experimental: as §3, §4, §5, §6, §7, §8, §9

[18] = system: MUC13; assay: as above; format: cell-based, human; conditions: 24 h
Experimental: as §3, §4, §5, §6, §7, §8, §9

[19] = system: MUC5AC; assay: as above; format: cell-based, human; conditions: 24 h
Experimental: as §3, §4, §5, §6, §7, §8, §9

[20] = system: MUC3; assay: as above; format: cell-based, human; conditions: 24 h
Experimental: as §3, §4, §5, §6, §7, §8, §9

[21] = system: MUC8; assay: as above; format: cell-based, human; conditions: 24 h
Experimental: as §3, §4, §5, §6, §7, §8, §9

[22] = system: MUC12; assay: as above; format: cell-based, human; conditions: 24 h
Experimental: as §3, §4, §5, §6, §7, §8, §9

[23] = system: Bacteria (AIEC obtained from IBD and IBS patients); assay: Observed therapeutic effective dose determined in the in vitro experiments (Table 4); format: cell-based, E. coli; conditions: Not relevant = no anti-attachment or anti-invasive effect on the AIEC
Experimental: as §1, §2

[24] = formulation or component plus 80 ug/ml bromelain, 24 h
[25] = without bromelain, test sample apical 24 h, IFN+LPS+TNF cocktail basolateral

N[C@@H](Cc1c[nH]c2ccccc12)C(=O)O [L-tryptophan]
% inhibition of the release of IL-8 Median ± SEM [1, 24]: 76 ± 2% | % increase in anti-inflammatory activity compared to equivalent formulation without bromelain (difference of means) [1]: 62% | % inhibition of the release of IL-8 Median ± SEM [1, 25]: 14 ± 7%

CC1CCC(C(C)C)C(O)C1 (stereo not drawn) [Menthol]
therapeutic effective dose, Target cell Enterocyte (pg/cell) [2]: 20 pg/cell | therapeutic effective dose, Target cell Bacteria (fg/cell) [3]: Not relevant | therapeutic effective dose, Target cell Macrophage (pg/cell) [4]: 20 pg/cell

C=C1CC[C@H](O)C/C1=C/C=C1\CCC[C@]2(C)[C@@H]([C@H](C)CCCC(C)C)CC[C@@H]12 [Vitamin D3, Cholecalciferol]
observed therapeutic effective dose, Target cell Macrophage (pg/cell) [5]: 0.36 pg/cell | observed therapeutic effective dose, Target cell Enterocyte (pg/cell) [6]: 0.018 pg/cell | Effect on MUC gene expression, MUC16 ([7]; 0.048 μg/ml vitamin D3): No effect | Effect on MUC gene expression, MUC16 ([7]; 0.48 μg/ml vitamin D3): No effect | Effect on MUC gene expression, MUC7 ([8]; 0.048 μg/ml vitamin D3): No effect | Effect on MUC gene expression, MUC7 ([8]; 0.48 μg/ml vitamin D3): No effect | effect on the expression of MUC7, individually ([8]; titration, FIGS. 9A & 9B): did not exert a major effect | Effect on MUC gene expression, MUC5B: Decreased by ([9]; 0.048 μg/ml vitamin D3): by 56% | Effect on MUC gene expression, MUC5B: Decreased by ([9]; 0.48 μg/ml vitamin D3): by 63% | Effect on MUC gene expression, MUC20: Decreased by ([10]; 0.048 μg/ml vitamin D3): by 18% | Effect on MUC gene expression, MUC20: Decreased by ([10]; 0.48 μg/ml vitamin D3): by 27% | Effect on MUC gene expression, MUC1: Decreased by ([11]; 0.048 μg/ml vitamin D3): by 37% | Effect on MUC gene expression, MUC1: Decreased by ([11]; 0.48 μg/ml vitamin D3): by 58% | Effect on MUC gene expression, MUC17: Decreased by ([12]; 0.048 μg/ml vitamin D3): by 31% | Effect on MUC gene expression, MUC17: Decreased by ([12]; 0.48 μg/ml vitamin D3): by 40% | Effect on MUC gene expression, MUC4 ([13]; 0.048 μg/ml vitamin D3): No effect | Effect on MUC gene expression, MUC4 ([13]; 0.48 μg/ml vitamin D3): No effect | Effect on MUC gene expression, MUC19 ([14]; 0.048 μg/ml vitamin D3): No effect | Effect on MUC gene expression, MUC19 ([14]; 0.48 μg/ml vitamin D3): No effect | Effect on MUC gene expression, MUC15 ([15]; 0.048 μg/ml vitamin D3): No effect | Effect on MUC gene expression, MUC15 ([15]; 0.48 μg/ml vitamin D3): No effect | Effect on MUC gene expression, MUC2 ([16]; 0.048 μg/ml vitamin D3): No effect | Effect on MUC gene expression, MUC2 ([16]; 0.48 μg/ml vitamin D3): No effect | effect on the expression of MUC2, individually ([16]; titration, FIGS. 9A & 9B): did not exert a major effect | Effect on MUC gene expression, MUC6 ([17]; 0.048 μg/ml vitamin D3): No effect | Effect on MUC gene expression, MUC6 ([17]; 0.48 μg/ml vitamin D3): No effect | Effect on MUC gene expression, MUC13: Decreased by ([18]; 0.048 μg/ml vitamin D3): by 37% | Effect on MUC gene expression, MUC13: Decreased by ([18]; 0.48 μg/ml vitamin D3): by 56% | Effect on MUC gene expression, MUC5AC: Decreased by ([19]; 0.048 μg/ml vitamin D3): by 42% | Effect on MUC gene expression, MUC5AC: Decreased by ([19]; 0.48 μg/ml vitamin D3): by 42% | Effect on MUC gene expression, MUC3: Decreased by ([20]; 0.048 μg/ml vitamin D3): by 43% | Effect on MUC gene expression, MUC3 ([20]; 0.48 μg/ml vitamin D3): No effect | Effect on MUC gene expression, MUC8: Decreased by ([21]; 0.048 μg/ml vitamin D3): by 30% | Effect on MUC gene expression, MUC8: Decreased by ([21]; 0.48 μg/ml vitamin D3): by 50% | Effect on MUC gene expression, MUC12 ([22]; 0.048 μg/ml vitamin D3): No effect | Effect on MUC gene expression, MUC12 ([22]; 0.48 μg/ml vitamin D3): No effect | observed therapeutic effective dose, Target cell Bacteria (fg/cell) [23]: Not relevant

CCCC(=O)O [sodium butyrate]
% inhibition of the release of IL-8 Median ± SEM [1, 24]: 71 ± 7% | % increase in anti-inflammatory activity compared to equivalent formulation without bromelain (difference of means) [1]: 60% | % inhibition of the release of IL-8 Median ± SEM [1, 25]: 11 ± 15% | observed therapeutic effective dose, Target cell Macrophage (pg/cell) [5]: 300 pg/cell | observed therapeutic effective dose, Target cell Enterocyte (pg/cell) [6]: 15 pg/cell
